{"source": "ChEMBL document CHEMBL1146908", "about": "“Synthesis of 16-mercaptohexadecylphosphocholine, a miltefosine analog with leishmanicidal activity” (2006)", "type_in_all_cases": "functional", "settings_in_all_cases": "read-out: LD50 (the source's name)", "key": {"Leishmania mexicana [1]": {"tested_on": "Leishmania mexicana", "assay": "Antileishmanial activity against Leishmania pifanoi axenic amastigotes by MTT assay"}, "Leishmania donovani [2]": {"tested_on": "Leishmania donovani", "assay": "Antileishmanial activity against Leishmania donovani promastigotes by MTT assay"}, "Leishmania donovani [3]": {"tested_on": "Leishmania donovani", "assay": "Antileishmanial activity against miltefosine-resistant Leishmania donovani promastigotes by MTT assay"}, "Leishmania mexicana [4]": {"tested_on": "Leishmania mexicana", "assay": "Antileishmanial activity against miltefosine-resistant Leishmania pifanoi axenic amastigotes by MTT assay"}}, "data": [{"smiles": "C[N+](C)(C)CCOP(=O)([O-])OCCCCCCCCCCCCCCCCS", "values": [{"measurement": "LC50", "setting": "Leishmania mexicana [1]", "value": 5.5, "unit": "µM"}, {"measurement": "LC50", "setting": "Leishmania donovani [2]", "value": 5.1, "unit": "µM"}, {"measurement": "LC50", "setting": "Leishmania donovani [3]", "value": "> 50", "unit": "µM"}, {"measurement": "LC50", "setting": "Leishmania mexicana [4]", "value": "> 50", "unit": "µM"}]}, {"smiles": "CCCCCCCCCCCCCCCCOP(=O)([O-])OCC[N+](C)(C)C", "note": "[MILTEFOSINE]", "values": [{"measurement": "LC50", "setting": "Leishmania mexicana [1]", "value": 5, "unit": "µM"}, {"measurement": "LC50", "setting": "Leishmania donovani [2]", "value": 5.3, "unit": "µM"}, {"measurement": "LC50", "setting": "Leishmania donovani [3]", "value": "> 50", "unit": "µM"}, {"measurement": "LC50", "setting": "Leishmania mexicana [4]", "value": "> 50", "unit": "µM"}]}]}
